# According to ChEMBL document CHEMBL2203286, “Synthesis and structure-activity relationship studies of cytotoxic vinorelbine amide analogues” (Bioorg Med Chem Lett, 2012):
# Columns and labels:
# A549 [1] = experiment: Cytotoxicity against human A549 cells after 24 to 72 hrs by MTT assay; assay type: functional, cell-based
# Mus musculus [2] = experiment: Toxicity in BALB/cA nude mouse xenografted with human A549 cells assessed as change in body weight at 9 mg/kg, iv once every seven days for three doses (reference value: 27.61 g); conditions: in vivo
# A549 [3] = experiment: Ratio of navelbine IC50 to compound IC50 for human A549 cells; assay type: functional
# A549 [4] = experiment: Antitumor activity against human A549 cells xenografted in BALB/cA nude mouse assessed as growth inhibition at 9 mg/kg, iv once every seven days for three doses relative to control; conditions: read-out: GI
# Mus musculus [5] = experiment: Toxicity in BALB/cA nude mouse xenografted with human A549 cells assessed as mortality at 9 mg/kg, iv […]; assay type: organism-based; set-up: dose 9 mg/kg, route intravenous; conditions: in vivo
smiles,measurement,setting,value
CCC1=C[C@@H]2CN(C1)Cc1c([nH]c3ccccc13)[C@@](C(=O)OC)(c1cc3c(cc1OC)N(C)[C@H]1[C@@](O)(CNC(=O)c4cccc(OC)c4)[C@H](OC(C)=O)[C@]4(CC)C=CCN5CC[C@]31[C@@H]54)C2,IC50,A549 [1],6.3 nM
CCC1=C[C@@H]2CN(C1)Cc1c([nH]c3ccccc13)[C@@](C(=O)OC)(c1cc3c(cc1OC)N(C)[C@H]1[C@@](O)(CNC(=O)c4c(F)cccc4F)[C@H](OC(C)=O)[C@]4(CC)C=CCN5CC[C@]31[C@@H]54)C2,IC50,A549 [1],7.9 nM
CCC1=C[C@@H]2CN(C1)Cc1c([nH]c3ccccc13)[C@@](C(=O)OC)(c1cc3c(cc1OC)N(C)[C@H]1[C@@](O)(CNC(=O)c4cccc(C)c4)[C@H](OC(C)=O)[C@]4(CC)C=CCN5CC[C@]31[C@@H]54)C2,IC50,A549 [1],17.2 nM
CCC1=C[C@@H]2CN(C1)Cc1c([nH]c3ccccc13)[C@@](C(=O)OC)(c1cc3c(cc1OC)N(C)[C@H]1[C@@](O)(CNC(=O)c4ccncc4)[C@H](OC(C)=O)[C@]4(CC)C=CCN5CC[C@]31[C@@H]54)C2,IC50,A549 [1],8.1 nM
CCC1=C[C@@H]2CN(C1)Cc1c([nH]c3ccccc13)[C@@](C(=O)OC)(c1cc3c(cc1OC)N(C)[C@H]1[C@@](O)(CNC(=O)Cc4ccccc4)[C@H](OC(C)=O)[C@]4(CC)C=CCN5CC[C@]31[C@@H]54)C2,IC50,A549 [1],16.2 nM
CCC1=C[C@@H]2CN(C1)Cc1c([nH]c3ccccc13)[C@@](C(=O)OC)(c1cc3c(cc1OC)N(C)[C@H]1[C@@](O)(CNC(=O)c4ccc(OC)c(OC)c4)[C@H](OC(C)=O)[C@]4(CC)C=CCN5CC[C@]31[C@@H]54)C2,IC50,A549 [1],6.5 nM
CCC(=O)NC[C@@]1(O)[C@H](OC(=O)CC)[C@]2(CC)C=CCN3CC[C@@]4(c5cc([C@@]6(C(=O)OC)C[C@@H]7C=C(CC)CN(Cc8c6[nH]c6ccccc86)C7)c(OC)cc5N(C)[C@@H]14)[C@@H]32,IC50,A549 [1],12 nM
CCC(=O)NC[C@@]1(O)[C@H](OC(C)=O)[C@]2(CC)C=CCN3CC[C@@]4(c5cc([C@@]6(C(=O)OC)C[C@@H]7C=C(CC)CN(Cc8c6[nH]c6ccccc86)C7)c(OC)cc5N(C)[C@@H]14)[C@@H]32,IC50,A549 [1],15.6 nM
CCC1=C[C@@H]2CN(C1)Cc1c([nH]c3ccccc13)[C@@](C(=O)OC)(c1cc3c(cc1OC)N(C)[C@H]1[C@@](O)(CNC(=O)c4ccc([N+](=O)[O-])cc4)[C@H](OC(C)=O)[C@]4(CC)C=CCN5CC[C@]31[C@@H]54)C2,IC50,A549 [1],41.1 nM
CCC1=C[C@@H]2CN(C1)Cc1c([nH]c3ccccc13)[C@@](C(=O)OC)(c1cc3c(cc1OC)N(C)[C@H]1[C@@](O)(CNC(=O)c4ccc(F)cc4)[C@H](OC(C)=O)[C@]4(CC)C=CCN5CC[C@]31[C@@H]54)C2,IC50,A549 [1],6.6 nM
CCC1=C[C@@H]2CN(C1)Cc1c([nH]c3ccccc13)[C@@](C(=O)OC)(c1cc3c(cc1OC)N(C)[C@H]1[C@@](O)(CNC(=O)c4ccc(Cl)cc4)[C@H](OC(C)=O)[C@]4(CC)C=CCN5CC[C@]31[C@@H]54)C2,IC50,A549 [1],25.6 nM
CCC1=C[C@@H]2CN(C1)Cc1c([nH]c3ccccc13)[C@@](C(=O)OC)(c1cc3c(cc1OC)N(C)[C@H]1[C@@](O)(CNC(=O)c4ccc(C)cc4)[C@H](OC(C)=O)[C@]4(CC)C=CCN5CC[C@]31[C@@H]54)C2,IC50,A549 [1],15.3 nM
CCC1=C[C@@H]2CN(C1)Cc1c([nH]c3ccccc13)[C@@](C(=O)OC)(c1cc3c(cc1OC)N(C)[C@H]1[C@@](O)(CNC(=O)c4ccc(C(F)(F)F)cc4)[C@H](OC(C)=O)[C@]4(CC)C=CCN5CC[C@]31[C@@H]54)C2,IC50,A549 [1],20.7 nM
CCC1=C[C@@H]2CN(C1)Cc1c([nH]c3ccccc13)[C@@](C(=O)OC)(c1cc3c(cc1OC)N(C)[C@H]1[C@@](O)(CNC(=O)C4CC4)[C@H](OC(C)=O)[C@]4(CC)C=CCN5CC[C@]31[C@@H]54)C2.O=C(O)C(O)C(O)C(=O)O,Activity,Mus musculus [2],26.53 g
same,Ratio IC50,A549 [3],3
same,inhibition in vivo at 9 mg/kg,A549 [4],18%
same,Activity,Mus musculus [5],Non-toxic
same,IC50,A549 [1],3 nM
CCC1=C[C@@H]2CN(C1)Cc1c([nH]c3ccccc13)[C@@](C(=O)OC)(c1cc3c(cc1OC)N(C)[C@H]1[C@@](O)(CNC(=O)c4ccco4)[C@H](OC(C)=O)[C@]4(CC)C=CCN5CC[C@]31[C@@H]54)C2.O=C(O)C(O)C(O)C(=O)O,Activity,Mus musculus [2],25.45 g
same,inhibition in vivo at 9 mg/kg,A549 [4],58%
same,IC50,A549 [1],3.2 nM
CCC1=C[C@@H]2CN(C1)Cc1c([nH]c3ccccc13)[C@@](C(=O)OC)(c1cc3c(cc1OC)N(C)[C@H]1[C@@](O)(CNC(=O)C(C)(C)C)[C@H](OC(C)=O)[C@]4(CC)C=CCN5CC[C@]31[C@@H]54)C2,IC50,A549 [1],37 nM
CCC1=C[C@@H]2CN(C1)Cc1c([nH]c3ccccc13)[C@@](C(=O)OC)(c1cc3c(cc1OC)N(C)[C@H]1[C@@](O)(CNC(=O)c4ccccc4F)[C@H](OC(C)=O)[C@]4(CC)C=CCN5CC[C@]31[C@@H]54)C2,IC50,A549 [1],7.3 nM
CCC1=C[C@@H]2CN(C1)Cc1c([nH]c3ccccc13)[C@@](C(=O)OC)(c1cc3c(cc1OC)N(C)[C@H]1[C@@](O)(C(=O)OC)[C@H](OC(C)=O)[C@]4(CC)C=CCN5CC[C@]31[C@@H]54)C2 [VINORELBINE],Activity,Mus musculus [2],26.22 g
same,inhibition in vivo at 9 mg/kg,A549 [4],55.9%
same,Activity,Mus musculus [5],Non-toxic
same,IC50,A549 [1],9 nM
CCCCC(=O)NC[C@@]1(O)[C@H](OC(C)=O)[C@]2(CC)C=CCN3CC[C@@]4(c5cc([C@@]6(C(=O)OC)C[C@@H]7C=C(CC)CN(Cc8c6[nH]c6ccccc86)C7)c(OC)cc5N(C)[C@@H]14)[C@@H]32,IC50,A549 [1],22.1 nM
CCCC(=O)NC[C@@]1(O)[C@H](OC(C)=O)[C@]2(CC)C=CCN3CC[C@@]4(c5cc([C@@]6(C(=O)OC)C[C@@H]7C=C(CC)CN(Cc8c6[nH]c6ccccc86)C7)c(OC)cc5N(C)[C@@H]14)[C@@H]32,IC50,A549 [1],17.3 nM
CCC1=C[C@@H]2CN(C1)Cc1c([nH]c3ccccc13)[C@@](C(=O)OC)(c1cc3c(cc1OC)N(C)[C@H]1[C@@](O)(CNC(=O)c4ccccc4)[C@H](OC(C)=O)[C@]4(CC)C=CCN5CC[C@]31[C@@H]54)C2.O=C(O)C(O)C(O)C(=O)O,Activity,Mus musculus [2],24.6 g
same,inhibition in vivo at 9 mg/kg,A549 [4],43.5%
same,Activity,Mus musculus [5],Non-toxic
same,IC50,A549 [1],5 nM
CCC1=C[C@@H]2CN(C1)Cc1c([nH]c3ccccc13)[C@@](C(=O)OC)(c1cc3c(cc1OC)N(C)[C@H]1[C@@](O)(CNC(C)=O)[C@H](OC(C)=O)[C@]4(CC)C=CCN5CC[C@]31[C@@H]54)C2,IC50,A549 [1],24.5 nM
CCC1=C[C@@H]2CN(C1)Cc1c([nH]c3ccccc13)[C@@](C(=O)OC)(c1cc3c(cc1OC)N(C)[C@H]1[C@@](O)(CNC(=O)C(C)C)[C@H](OC(C)=O)[C@]4(CC)C=CCN5CC[C@]31[C@@H]54)C2,IC50,A549 [1],11.4 nM
CCC1=C[C@@H]2CN(C1)Cc1c([nH]c3ccccc13)[C@@](C(=O)OC)(c1cc3c(cc1OC)N(C)[C@H]1[C@@](O)(CNC(=O)CC(C)C)[C@H](OC(C)=O)[C@]4(CC)C=CCN5CC[C@]31[C@@H]54)C2,IC50,A549 [1],22 nM
